Type in all cases: functional, organism-based
Assay [1] concerns Human immunodeficiency virus 1. Nature of the assay: Antiviral activity against HIV1.
The test system of a further assay is Human alphaherpesvirus 1. Nature of the assay: Antiviral activity against HSV1.
The next assay concerns Human alphaherpesvirus 2. Nature of the assay: Antiviral activity against HSV2.
A further assay concerns Human betaherpesvirus 5. As to the kind of experiment: Antiviral activity against HCMV.

In brackets after ≈: the same amount, converted by molar mass. Activity calls are given as the source filed them. No cut-off for these calls is given here.

The text below walks through data of ChEMBL document CHEMBL1255212, “Synthesis and antiviral evaluation of α-D-2',3'-didehydro-2',3'-dideoxy-3'-C-hydroxymethyl nucleosides” (Bioorg Med Chem Lett, 2010).

Consider `NC1C=CN([C@@H]2C=C(CO)[C@@H](CO)O2)C(=O)N1` (some centres not stated), for which the result (in assay [1]; in the assay on Human alphaherpesvirus 1; with Human alphaherpesvirus 2; with Human betaherpesvirus 5) was inactive.
For `Cc1cn([C@@H]2C=C(CO)[C@@H](CO)O2)c(=O)[nH]c1=O`, the outcome (in assay [1]; in the assay on Human alphaherpesvirus 2; in the assay with Human betaherpesvirus 5) was inactive. In addition, the EC50 – broadly, the concentration needed to bring the measured effect to its halfway point – in the assay on Human alphaherpesvirus 1 stood at 33 µg/mL (≈ 130 µM).
Regarding `Nc1ncnc2c1ncn2[C@@H]1C=C(CO)[C@@H](CO)O1`, the outcome (in assay [1]; in the assay on Human alphaherpesvirus 1; in the assay with Human alphaherpesvirus 2; with Human betaherpesvirus 5) was inactive.
